This note sets out measurements from patent US7714151B2, “Aminated isoflavonoid derivatives and uses thereof” (Novogen Research Pty Ltd, priority 2002, dated 2010).

Assay [1] relates to COX. Nature of the assay: COX inhibition screening assay in LPS-stimulated monocytes (prostaglandin radioimmunoassay). Particulars: 10 μM, human monocytes. It is filed as cell-based. The method, then:
(§1) Human buffy coats were obtained from the Red Cross Blood Bank. Buffy coat (50 ml) was diluted 1:2 with sterile phosphate buffered saline (PBS), overlayed onto Lymphoprep density gradient medium and centrifuged at 800 g for 20 min. The mononuclear cell (MNC) layer was removed and washed with PBS and monocyte enriched cells were prepared from MNC by counter-current centrifugal elutriation. Monocytes were then resuspended in RPMI tissue culture medium with 10% foetal calf serum at 1.5×10^6 cells/ml. Test analogues were prepared in DMSO and incubated with monocytes at 37° for 30 min at either 10 or 100 μM. After the 30 min pre-incubation, bacterial lipopolysaccharide (LPS) was added (200 ng/ml) and cells were incubated for a further 18 h at 37° in 5% CO2. After centrifugation, cell-free supernatants were then removed and assayed for either prostaglandin or thromboxane production, as determined by radioimmunoassay. Because TXA2 is labile in aqueous medium, TXB2, the stable hydrolysis product of TXA2, was measured. For each dose (0, 10, 100 μM), incubations were performed in triplicate. Results are expressed as mean±SD, n=3. ANOVA followed by Newman-Keuls multiple comparisons test was used to examine differences between doses and the control values.

For assay [2], the system named is MDA-MB-468 (ER negative breast Ca). Nature of the assay: Cell cytotoxicity analysis (MTT), MDA-MB-468. It is filed as cell-based. The settings on record: Homo sapiens, 120 h, MDA-MB-468, five days. The source says: (§2) The method of Alley et al. (1988) was followed. Briefly, prior to cytotoxicity screening a growth curve was constructed for each tumour line to be screened to determine growth kinetics, optimal seeding density to yield logarithmic growth over five days, and the corresponding lag time. Spent culture medium was aspirated from a sub-confluent adherent monolayer culture (T-75), the cells trypsinised and resuspended in a minimal volume of culture medium. After counting cells, a 96-well plate was seeded at an appropriate density (100 μl) to yield optimal growth parameters and the plate was then incubated at 37° C. under 5% CO2. After the pre-determined lag-time the plate was treated with either vehicle (negative control) or serial dilutions of the test compound prepared in culture medium, and then incubated for a further five days. MTT (0.5 mg/ml) prepared in PBS was added to all wells and incubated at 37° C. for ˜3 hr. Spent medium was then carefully aspirated and DMSO (150 μt) was added to solubilise cells and the reduced formazan. Absorbance was then read on a SpectraMax plate reader at 570 nm and viable cells in treated plates were expressed as a percentage of cells in control plates.

In assay [3] the test system is testosterone-induced LNCaP proliferation. Nature of the assay: Androgen inhibition study: testosterone-induced LNCaP proliferation. The settings on record: for fold better than Cpd. 1 at inhibiting testosterone-induced proliferation: relative to Cpd. 1. The assay is classed as cell-based, human. The protocol:
The method of Negri-Cesi and Motta (1994) and Negri-Cesi et al. (1999) was followed. Briefly, LNCaP cells were cultured in RPMI supplemented with 10% fetal calf serum and 2 mM L-glutamine at 37° C. under 5% CO2. At day 0 a subconfluent LNCaP culture flask (80%) were harvested by trypsinisation, washed, resuspended in RPMI media completed with charcoal stripped fetal calf serum (RPMIi) and seeded into 12 well plates at 30,000 cells per well (15,000 cells/mL). The plates were cultured at 37° C. with 5% CO2 for 48 hours. On day 2, spent media was carefully aspirated from all plates and then replenished with 2 ml RPMIi containing either testosterone (0.5 pM) as positive control, testosterone plus finasteride (1 uM) as inhibitor control and vehicle as growth control (equivalent concentration of DMSO). Test plates were treated as described above; only serial dilutions of test compounds prepared in RPMIi were used. Concentrations of test compound were chosen based on their cytotoxicity profile as determined in the cell cytotoxicity analysis methods section above i.e. the top concentration used in the LNCaP proliferation assay was determined as the concentration at which cells first appear close to 100% viable along the cytotoxicity curve. This concentration was chosen to ensure that any inhibition of proliferation imparted by the test agent was due to the inhibition of 5′AR and not due to direct killing of the cells. It is important not to disturb cell monolayer during the addition of treatments. On days 5 and 8 the process followed on day 2 was repeated for all plates. On day 11 spent media was aspirated from all wells, cells were washed gently with PBS (500 μl), trypsinised and the cells in each well counted using a haemocytometer. The average cell count and standard deviation was calculated and the result expressed as the % inhibition of testosterone-induced proliferation in comparison with vehicle control.

Assay [4] deals with T1, thromboxane synthase (Homo sapiens, UniProt P24557).
T1 construct: endogenous in cells; host or cells: human peripheral blood monocytes (elutriated from buffy coat), LPS-stimulated
T1 sequence (P24557 1-533): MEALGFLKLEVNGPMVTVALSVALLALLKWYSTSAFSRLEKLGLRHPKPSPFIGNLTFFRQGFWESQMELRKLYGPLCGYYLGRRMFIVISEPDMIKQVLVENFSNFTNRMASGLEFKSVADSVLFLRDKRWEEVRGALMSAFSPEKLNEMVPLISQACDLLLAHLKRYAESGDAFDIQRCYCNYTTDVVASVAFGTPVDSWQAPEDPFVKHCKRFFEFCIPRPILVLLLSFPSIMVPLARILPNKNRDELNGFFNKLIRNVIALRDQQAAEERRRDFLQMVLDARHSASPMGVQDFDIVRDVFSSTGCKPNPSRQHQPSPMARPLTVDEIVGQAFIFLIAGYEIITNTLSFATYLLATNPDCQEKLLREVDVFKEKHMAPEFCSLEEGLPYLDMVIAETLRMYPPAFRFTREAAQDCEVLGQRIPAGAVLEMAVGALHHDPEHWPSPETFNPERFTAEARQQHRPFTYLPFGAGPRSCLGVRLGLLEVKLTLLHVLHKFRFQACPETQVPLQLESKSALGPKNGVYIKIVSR
Nature of the assay: Thromboxane synthase inhibition screening assay in LPS-stimulated monocytes (TXB2 radioimmunoassay). The assay is classed as cell-based. The method, then:
as §1

The subject of assay [5] is DU145 (AR negative prostate Ca). Nature of the assay: Cell cytotoxicity analysis (MTT), DU145. It is filed as cell-based. The settings on record: Homo sapiens.
Description: as §2

For assay [6], the system named is LNCaP (AR positive Prostate Ca). Nature of the assay: Cell cytotoxicity analysis (MTT), LNCaP. The assay is classed as cell-based. Particulars: Homo sapiens.
Description: as §2

Assay [7] has as its system all cell lines tested. The assay is described as follows: Cell cytotoxicity analysis (MTT), statements over the cell lines tested. The assay is classed as cell-based, human. Particulars: for overall cell killing activity against all cell lines tested: comparison of Cpd. 1, 2 and 3.
Description: as §2

The test system of assay [8] is NCI-H460 (large cell lung Ca). The assay is described as follows: Cell cytotoxicity analysis (MTT), NCI-H460. The settings on record: Homo sapiens. It is filed as cell-based.
Description: as §2

For assay [9], the system named is PC3 (AR negative prostate Ca). The assay is described as follows: Cell cytotoxicity analysis (MTT), PC3. The settings on record: Homo sapiens, 120 h, PC3, five days. It is filed as cell-based.
Description: as §2

Setting [10] is: Homo sapiens, LNCaP, read-out: IC50 inhibition of testosterone-induced LNCaP proliferation.
[11] abbreviates: Homo sapiens, LNCaP, read-out: IC50 inhibition of testosterone-induced proliferation.
The mark [12] stands for this setting: 120 h, DU-145, five days, MTT, read-out: Cytotoxicity DU-145 Avg.
[13] abbreviates: DU-145, read-out: IC50 against DU-145.
Where [14] appears, read: 120 h, LNCaP, five days, MTT, read-out: Cytotoxicity LNCaP Avg.
Setting [15] is: 120 h, NCI-H460, five days, MTT, read-out: Cytotoxicity NCI-H460 Avg.

pIC50: −log10 of the molar value. Where two headings read alike, the source gives them in different places.

For the molecule `Oc1ccc(C2COc3cc(O)ccc3C2=NNc2ccccc2)cc1` (stereo not shown) [Cpd. 1], the “inhibition of COX activity” value in assay [1] amounted to 100%. Moreover, the pIC50 in [2] was 4.46; in assay [3] (setting [10]) it was 5.65; in [3] (setting [11]), 5.65; in [5] (setting [12]), 4.86; in assay [5] (setting [13]), 4.86; in [6] (setting [14]) it was 4.79. For the same molecule, the pIC50 was 4.79 in [6] (read-out: IC50 against LNCaP); less than 4.70 in assay [7] (Homo sapiens, cell lines other than LNCaP and DU-145, read-out: Modest activity against the other cell lines tested); 4.56 in assay [8] (setting [15]); 4.47 in [9]. The same molecule displayed an inhibition at 10 µM in [4] of 33%.
Turning to `O=[N+]([O-])c1ccc(NN=C2c3ccc(O)cc3OCC2c2ccc(O)cc2)cc1` (stereo not shown) [Cpd. 2], the “inhibition of COX activity” value in assay [1] was determined as 77%. Besides, the pIC50 in assay [2] is 4.58; in assay [3] (setting [10]), greater than 7.46; in assay [5] (setting [12]) it was 4.34; in [6] (setting [14]) it was 4.29; in assay [8] (setting [15]) it was 4.49; in [9], 4.35. Further, the IC50 in [3] (Homo sapiens, LNCaP, read-out: IC50 inhibition of testosterone-induced proliferation (nM)) is less than 37 nM. Further, in assay [3], the “fold better than Cpd. 1 at inhibiting testosterone-induced proliferation” value is reported as roughly 60 fold. Besides, testing at 10 µM in assay [4] gave an inhibition of 27%. Also, in [7], the “overall cell killing activity against all cell lines tested” value was “lowest activity”.
Regarding `Cc1ccc(NN=C2c3ccc(O)cc3OCC2c2ccc(O)cc2)cc1` (stereo not shown) [Cpd. 3], the “inhibition of COX activity” value in assay [1] was 100%. Also, the pIC50 is 4.65 in assay [2]; 6.17 in assay [3] (setting [10]); 6.17 in [3] (setting [11]); 4.72 in [5] (setting [12]); 4.72 in assay [5] (setting [13]); 4.79 in assay [6] (setting [14]). Moreover, the pIC50 was 4.79 in assay [6] (read-out: IC50 against LNCaP); 4.88 in assay [8] (NCI-H460, read-out: activity against NCI-H460); 4.55 in assay [9]. Moreover, in assay [3], the “fold better than Cpd. 1 at inhibiting testosterone-induced proliferation” value was found to be 3 fold. In addition, the inhibition at 10 µM in assay [4] was determined as 60%. Also, in assay [7], the “overall cell killing activity against all cell lines tested” value was “best overall cell killing activity”.
As for `CC(C)(C)NC(=O)[C@H]1CC[C@H]2[C@@H]3CC[C@H]4NC(=O)C=C[C@]4(C)[C@H]3CC[C@]12C` [finasteride, reference compound], in [3] (1 μM, inhibitor control), the “blocking of testosterone-induced proliferation” value is reported as “potently blocked”.
